In US20250353841A1 (BIOGEN MA INC., priority 2022, published 2025) one finds IC50 data, which are given here for 34 molecules.

The structures appear in SMILES notation.

In the test the test system is mutant Huntington (HTT) protein. The test is described as follows: HTT Mutant HTRF iPSC assay (mHTT protein lowering). The format is cell-based. The settings on record: human iPSC derived from a HTT patient with a poly-Q49 mutation. (TR-FRET usually uses a lanthanide donor and a delayed reading to cut background.)

In the case of `Cc1cn2nc(-c3cc(F)c4nc(NC(=O)C5CC(CN(C)C)C5)cn4c3)cc(C)c2n1` (stereo not shown) [Compound 251, 3-((dimethylamino)methyl)-N-(6-(2,8-dimethylimidazo[1,2-b]pyridazin-6-yl)-8-fluoroimidazo[1,2-a]pyridin-2-yl)cyclobutane-1-carboxamide], the concentration for half-maximal inhibition (IC50) lay in the range of 100 to 1000 nM.

Molecule `Cc1cn2nc(-c3cc(F)c4nn(C5CCC6(CCNC6)C5)nc4c3)cc(C)c2n1` (stereo not shown) [Compound 396, 6-(2,8-dimethylimidazo[1,2-b]pyridazin-6-yl)-4-fluoro-2-(2-azaspiro[4.4]nonan-7-yl)-2H-benzo[d][1,2,3]triazole] yielded an IC50 of 100 to 1000 nM.

Molecule `Cc1cn2cc(-c3cc(F)c4nc(C5CCNCC5)cn4c3)cc(F)c2n1` [Compound 97, 8,8′-difluoro-2-methyl-2′-(piperidin-4-yl)-6,6′-biimidazo[1,2-a]pyridine] yielded an IC50 of 100 to 1000 nM.

In turn, `Cc1cn2nc(-c3cc(F)c4nc(N5CCC(N6CCCC6)C5)oc4c3)cc(C)c2n1` (stereo not shown) [Compound 476, 2-([1,3′-bipyrrolidin]-1′-yl)-6-(2,8-dimethylimidazo[1,2-b]pyridazin-6-yl)-4-fluorobenzo[d]oxazole] had an IC50 of 100 to 1000 nM.

In turn, `Cc1cc(-c2cc(F)c3nc(NC(=O)C4CN(C(C)C)C4)cn3c2)nc2cn(C)nc12` [Compound 292, N-(6-(2,7-dimethyl-2H-pyrazolo[4,3-b]pyridin-5-yl)-8-fluoroimidazo[1,2-a]pyridin-2-yl)-1-isopropylazetidine-3-carboxamide] returned a 50% inhibitory concentration (IC50) of under 100 nM.

Turning to `Cc1cn2cc(-c3cc(Cl)c4oc(C5CCNCC5)nc4c3)cc(F)c2n1` [Compound 534, 7-chloro-5-(8-fluoro-2-methylimidazo[1,2-a]pyridin-6-yl)-2-(piperidin-4-yl)benzo[d]oxazole], the IC50 was in the range of 1000 to 9000 nM.

For `COCCN1CC(NC(=O)c2cn3cc(-c4cc(C)c5nc(C)cn5n4)cc(F)c3n2)C1` [Compound 338, 6-(2,8-dimethylimidazo[1,2-b]pyridazin-6-yl)-8-fluoro-N-[1-(2-methoxyethyl)azetidin-3-yl]imidazo[1,2-a]pyridine-2-carboxamide], the IC50 is under 100 nM.

For `Cc1cn2nc(-c3cc(F)c4nc(C5CCNCC5)cn4c3)cc(C3CC3)c2n1` [Compound 194, 8-cyclopropyl-6-(8-fluoro-2-(piperidin-4-yl)imidazo[1,2-a]pyridin-6-yl)-2-methylimidazo[1,2-b]pyridazine], the 50% inhibitory concentration (IC50) was under 100 nM.

For `Cc1cn2nc(-c3cc(F)c4nc(C5CCNCC5)cn4c3)c(C)cc2n1` [Compound 101, 6-(8-fluoro-2-(piperidin-4-yl)imidazo[1,2-a]pyridin-6-yl)-2,7-dimethylimidazo[1,2-b]pyridazine], the 50% inhibitory concentration (IC50) lay within 1000 to 9000 nM.

Regarding `Cc1cn2nc(-c3cc(F)c4nc(C5CCN(C)CC5)nn4c3)cc(C)c2n1` [Compound 434, 6-(2,8-dimethylimidazo[1,2-b]pyridazin-6-yl)-8-fluoro-2-(1-methylpiperidin-4-yl)-[1,2,4]triazolo[1,5-a]pyridine], the IC50 is 100 to 1000 nM.

For the molecule `Cc1cn2nc(-c3cc(F)c4nc(NC5CC(C)NC(C)C5)oc4c3)cc(C)c2n1` (stereo not shown) [Compound 484, 6-(2,8-dimethylimidazo[1,2-b]pyridazin-6-yl)-N-(2,6-dimethylpiperidin-4-yl)-4-fluorobenzo[d]oxazol-2-amine], the IC50 is under 100 nM.

Consider `CCN1CC[C@@H](N(C)c2nc3c(F)cc(-c4cc(C)c5nc(C)cn5n4)cc3o2)C[C@H]1C` (stereo in doubt) [Compound 487, rel-6-(2,8-dimethylimidazo[1,2-b]pyridazin-6-yl)-N-((2R,4R)-1-ethyl-2-methylpiperidin-4-yl)-4-fluoro-N-methylbenzo[d]oxazol-2-amine], for which the IC50 is under 100 nM.

Take `Cc1cn2nc(-c3cc(F)c4nc(NC(=O)C5CCNC6(CC6)C5)cn4c3)cc(C)c2n1` (stereo not shown) [Compound 268, N-(6-(2,8-dimethylimidazo[1,2-b]pyridazin-6-yl)-8-fluoroimidazo[1,2-a]pyridin-2-yl)-4-azaspiro[2.5]octane-7-carboxamide]: the IC50 was under 100 nM.

`Cc1cn2nc(-c3cc(F)c4nc([C@H]5[C@@H]6CN(C)C[C@@H]65)cn4c3)cc(C(F)F)c2n1` [Compound 233, 8-(difluoromethyl)-6-(8-fluoro-2-((1R,5S,6r)-3-methyl-3-azabicyclo[3.1.0]hexan-6-yl)imidazo[1,2-a]pyridin-6-yl)-2-methylimidazo[1,2-b]pyridazine] showed a half-maximal inhibitory concentration (IC50) of under 100 nM.

`COc1cc(-c2cc(F)c3nc(NC(=O)C4CN(C(C)C)C4)cn3c2)nn2nc(C)nc12` [Compound 296, N-(8-fluoro-6-(8-methoxy-2-methyl-[1,2,4]triazolo[1,5-b]pyridazin-6-yl)imidazo[1,2-a]pyridin-2-yl)-1-isopropylazetidine-3-carboxamide] came in with an IC50 of under 100 nM.

`Cc1cn2nc(-c3cc(F)c4nn(C5CCNCC5)nc4c3)cc(C3CC3)c2n1` [Compound 387, 6-(8-cyclopropyl-2-methylimidazo[1,2-b]pyridazin-6-yl)-4-fluoro-2-(piperidin-4-yl)-2H-benzo[d][1,2,3]triazole] returned an IC50 of 100 to 1000 nM.

`Cc1cn2nc(-c3cc(F)c4nc(C5CCNC(C)C5)cn4c3)cc(C)c2n1` (stereo not shown) [Compound 60, 6-(8-fluoro-2-(2-methylpiperidin-4-yl)imidazo[1,2-a]pyridin-6-yl)-2,8-dimethylimidazo[1,2-b]pyridazine]: the IC50 is under 100 nM.

`Cc1cn2nc(-c3cc(F)c4nc(NC(=O)C5(F)CNC5)cn4c3)cc(C)c2n1` [Compound 270, N-(6-(2,8-dimethylimidazo[1,2-b]pyridazin-6-yl)-8-fluoroimidazo[1,2-a]pyridin-2-yl)-3-fluoroazetidine-3-carboxamide] came in with an IC50 of under 100 nM.

In turn, `Cc1nc2c(C)cc(-c3cc(F)c4nn(C5CCN(C)CC5)cc4c3)nn2n1` [Compound 359, 6-(7-fluoro-2-(1-methylpiperidin-4-yl)-2H-indazol-5-yl)-2,8-dimethyl-[1,2,4]triazolo[1,5-b]pyridazine] showed an IC50 of under 100 nM.

Regarding `Cc1cn2nc(-c3cc(F)c4nn(C5CC6(CNC6)C5)nc4c3)cc(C)c2n1` [Compound 385, 6-(2,8-dimethylimidazo[1,2-b]pyridazin-6-yl)-4-fluoro-2-(2-azaspiro[3.3]heptan-6-yl)-2H-benzo[d][1,2,3]triazole], the IC50 was 100 to 1000 nM.

The molecule `Cc1nc2c(C)cc(-c3cc(F)c4nc(N5CCC6(CCN(C)CC6)C5)oc4c3)nn2n1` [Compound 498, 6-(2,8-dimethyl-[1,2,4]triazolo[1,5-b]pyridazin-6-yl)-4-fluoro-2-(8-methyl-2,8-diazaspiro[4.5]decan-2-yl)benzo[d]oxazole] had a concentration for half-maximal inhibition (IC50) of 100 to 1000 nM.

Regarding `Cc1cn2nc(-c3cc(F)c4nc(C56CNC(C5)C6)cn4c3)cc(C)c2n1` [Compound 159], the IC50 is 100 to 1000 nM.

Take `CCc1cc(-c2cc(F)c3nn(C4CCNCC4)nc3c2)nn2cc(C)nc12` [Compound 389, 6-(8-ethyl-2-methylimidazo[1,2-b]pyridazin-6-yl)-4-fluoro-2-(piperidin-4-yl)-2H-benzo[d][1,2,3]triazole]: the IC50 lay within 100 to 1000 nM.

Consider `Cc1cn2nc(-c3cc(F)c4nc(NC(=O)[C@@H]5CN[C@H]5C)cn4c3)cc(C)c2n1` (stereo in doubt) [Compound 287, rel-(2R,3S)-N-(6-(2,8-dimethylimidazo[1,2-b]pyridazin-6-yl)-8-fluoroimidazo[1,2-a]pyridin-2-yl)-2-methylazetidine-3-carboxamide], for which the IC50 is under 100 nM.

In the case of `Cc1cn2cc(-c3cc(F)c4nc(C5CCNCC5)cn4c3)nc(C)c2n1` [Compound 125, 6-(8-fluoro-2-(piperidin-4-yl)imidazo[1,2-a]pyridin-6-yl)-2,8-dimethylimidazo[1,2-a]pyrazine], the IC50 fell in the range of 100 to 1000 nM.

As to `Cc1cn2nc(-c3cc(F)c4nn(C5CC6CNCC65)nc4c3)cc(C)c2n1` (racemic) [Compound 397, 2-(3-azabicyclo[3.2.0]heptan-6-yl)-6-(2,8-dimethylimidazo[1,2-b]pyridazin-6-yl)-4-fluoro-2H-benzo[d][1,2,3]triazole], the IC50 fell in the range of 100 to 1000 nM.

As to `Cc1cn2nc(-c3cc(F)c4nc(N(C)C5CCNC(C)(C)C5)oc4c3)cc(C)c2n1` (single isomer, unassigned) [Compound 508], the IC50 lay in the range of 100 to 1000 nM.

As to `Cc1cn2nc(-c3cc(F)c4nc(C5CCN(C)CC5)cn4c3)cc(C)c2n1` [Compound 111, 6-(8-fluoro-2-(1-methylpiperidin-4-yl)imidazo[1,2-a]pyridin-6-yl)-2,8-dimethylimidazo[1,2-b]pyridazine], the IC50 was under 100 nM.

Turning to `Cc1cc(-c2cc(F)c3nc(C4CCNCC4)cn3c2)nn2cnnc12` [Compound 105, 6-(8-fluoro-2-(piperidin-4-yl)imidazo[1,2-a]pyridin-6-yl)-8-methyl-[1,2,4]triazolo[4,3-b]pyridazine], the IC50 fell in the range of 1000 to 9000 nM.

Turning to `CNC1CCC(n2cc3cc(-c4cc(C)c5nc(C)cn5n4)cc(F)c3n2)CC1` (stereo not shown) [Compound 368, 4-(5-(2,8-dimethylimidazo[1,2-b]pyridazin-6-yl)-7-fluoro-2H-indazol-2-yl)-N-methylcyclohexan-1-amine], the IC50 was in the range of 100 to 1000 nM.

For the molecule `Cn1cc2cc(-c3cc(F)c4nc(CC5CCCNC5)cn4c3)ccc2n1` (stereo not shown) [Compound 17, 5-(8-fluoro-2-(piperidin-3-ylmethyl)imidazo[1,2-a]pyridin-6-yl)-2-methyl-2H-indazole], the IC50 was in the range of 100 to 1000 nM.

`Cc1cn2nc(-c3cc(F)c4nc(C5CCN(CC6CCC6)CC5)nn4c3)cc(C)c2n1` [Compound 444, 2-(1-(cyclobutylmethyl)piperidin-4-yl)-6-(2,8-dimethylimidazo[1,2-b]pyridazin-6-yl)-8-fluoro-[1,2,4]triazolo[1,5-a]pyridine] displayed a 50% inhibitory concentration (IC50) of 100 to 1000 nM.

As to `Cc1cn2cc(-c3cc(F)c4nc(C5CCN(C)CC5)cn4c3)cc(C)c2n1` [Compound 9, 8-fluoro-2′,8′-dimethyl-2-(1-methylpiperidin-4-yl)-6,6′-biimidazo[1,2-a]pyridine], the IC50 was in the range of 1000 to 9000 nM.

In turn, `Cc1cn2nc(-c3cc(F)c4nc([C@]56CC[C@@H](C5)NC6)cn4c3)cc(C)c2n1` (single isomer, unassigned) [Compound 115] yielded a half-maximal inhibitory concentration (IC50) of 100 to 1000 nM.

What is called IC50 is the point on the concentration scale where inhibition reaches its midpoint.
